Source: patent US9540357B1, “15-aryl prostaglandins as EP4 agonists, and methods of use thereof” (Allergan, Inc., priority 2014, dated 2017)
“And” between values parts separate entries of the source, which are not always exact repeats. Equal values may be shown once.

Experiments:
EP2 [1] = target: T1, EP2 (Homo sapiens (Human), UniProt P43116); experiment: Competition binding ([3H]PGE2), EP2; settings: HEK 293 cells stably expressing human EP2 receptors, [3H]PGE2 10 nM
Procedure: Competition binding experiments were performed in a medium containing Hank's balanced salt solution, HEPES 20 mM, pH 7.3, membranes (˜60 μg protein) or 2×10^5 cells from HEK 293 cells stably expressing human EP2 receptors, [^3H]PGE2 (10 nM) and various concentrations of test compounds in a total volume of 300 μl. Reaction mixtures were incubated at 23° C. for 60 min, and were filtered over Whatman GF/B filters under vacuum. Filters were washed three times with 5 ml ice-cold buffer containing 50 mM Tris/HCl (pH 7.3). Non-specific binding was estimated in the presence of excess unlabeled PGE2 (10 μM). Binding data fitted to the binding model for a single class of binding sites, using nonlinear regression analysis. IC50 values thus obtained were converted to Ki using the equation of Ki=(IC50/(1+[L]/KD) where [L] represents PGE2 concentration (10 nM) and KD the dissociation constant for [^3H]PGE2 at human EP2 receptors (40 nM).

EP4 [2] = target: T2, EP4 (Homo sapiens (Human), UniProt P35408); experiment: cAMP assay, EP4; type: cell-based; settings: HEK-EBNA cells expressing EP4
T2 sequence (P35408 whole entry): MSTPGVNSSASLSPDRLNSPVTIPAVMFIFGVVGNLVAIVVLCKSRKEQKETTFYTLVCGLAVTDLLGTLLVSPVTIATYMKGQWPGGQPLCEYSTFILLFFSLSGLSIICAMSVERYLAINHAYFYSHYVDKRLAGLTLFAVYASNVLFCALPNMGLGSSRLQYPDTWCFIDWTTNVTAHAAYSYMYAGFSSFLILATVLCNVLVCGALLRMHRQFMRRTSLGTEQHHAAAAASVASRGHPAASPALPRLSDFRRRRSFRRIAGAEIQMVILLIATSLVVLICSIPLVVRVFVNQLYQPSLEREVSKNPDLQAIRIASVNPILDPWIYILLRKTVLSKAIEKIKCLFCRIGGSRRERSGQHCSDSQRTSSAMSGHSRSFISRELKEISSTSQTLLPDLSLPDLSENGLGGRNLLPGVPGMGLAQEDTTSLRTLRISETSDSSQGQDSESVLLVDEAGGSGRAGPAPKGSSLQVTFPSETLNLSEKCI
Procedure: A 384-well drug plate was prepared to contain 6 test compounds, PGE2 and cAMP in 16 serial dilutions in triplicate, using a Biomek station. HEK-EBNA cells expressing a target PG receptor subtype (EP2 or EP4) were suspended in a stimulation buffer (HBSS, 0.1% BSA, 0.5 mM IBMX and 5 mM HEPES, pH 7.4) in a density of 10^4 cells/5 microliters. The reaction was initiated by mixing 5 microliters drug dilutions with 5 microliters of HEK-EBNA cells in a well, carried out for 30 min at room temperature, and followed by the addition of 5 microliters anti-cAMP acceptor beads in the control buffer with Tween-20 (25 mM NaCl, 0.03% Tween-20, 5 mM HEPES, pH 7.4). After 30 min in the dark at room temperature, the mixtures were incubated with 15 microliters biotinylated-cAMP/streptavidin donor beads in Lysis/Detection buffer (0.1% BSA, 0.3% Tween-20 and 5 mM HEPES, pH 7.4) for 45 min at room temperature. Fluorescence changes were read using a Fusion-alpha microplate reader.

EP4 [3] = target: T2, EP4; experiment: Competition binding, EP4
hFP = hFP (Homo sapiens (Human), UniProt P43088); experiment: FLIPR calcium signal, hFP; type: cell-based; settings: HEK-293(EBNA) cells expressing hFP
hFP, sequence (P43088 whole entry): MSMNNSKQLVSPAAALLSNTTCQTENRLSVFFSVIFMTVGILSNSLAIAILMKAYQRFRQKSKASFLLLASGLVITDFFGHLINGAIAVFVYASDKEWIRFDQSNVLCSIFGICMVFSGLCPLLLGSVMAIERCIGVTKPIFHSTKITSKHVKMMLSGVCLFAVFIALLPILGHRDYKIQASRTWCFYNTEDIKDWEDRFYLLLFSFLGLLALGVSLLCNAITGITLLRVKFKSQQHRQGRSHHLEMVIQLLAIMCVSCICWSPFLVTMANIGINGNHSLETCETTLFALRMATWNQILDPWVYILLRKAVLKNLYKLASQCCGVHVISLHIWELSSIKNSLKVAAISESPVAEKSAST
Procedure: (§1) HEK-293(EBNA) cells, stably expressing one type or subtype of recombinant human prostaglandin receptors (prostaglandin receptors expressed: hDP/Gqs5; hEP1; hEP2/Gqs5: hEP3A/Gqi5; hEP4/Gqs5; hFP; hIP; hTP), were cultured in 100 mm culture dishes in high-glucose DMEM medium containing 10% fetal bovine serum, 2 mM 1-glutamine, 250 μg/ml geneticin (G418) and 200 microgram/mL hygromycin B as selection markers, and 100 units/ml penicillin G, 100 microgram/mL streptomycin and 0.25 microgram/mL amphotericin B.
(§2) Cells were seeded at a density of 5×10^4 cells per well in Biocoat® Poly-D-lysine-coated black-wall, clear-bottom 96-well plates (Becton-Dickinson) and allowed to attach overnight in an incubator at 37° C. Cells were then washed two times with HBSS-HEPES buffer (Hanks Balanced Salt Solution without bicarbonate and phenol red, 20 mM HEPES, pH 7.4) using a Denley Cellwash plate washer (Labsystems). […]
(§3) Cells were excited with an Argon laser at 488 nm, and emission was measured through a 510-570 nm bandwidth emission filter (FLIPR™, Molecular Devices, Sunnyvale, Calif.). […] The peak increase in fluorescence intensity was recorded for each well. […] The peak fluorescence change in each drug-containing well was then expressed relative to the controls. […]

hEP1 = hEP1 (Homo sapiens (Human), UniProt P34995); experiment: FLIPR calcium signal, hEP1; type: cell-based; settings: HEK-293(EBNA) cells expressing hEP1
hEP1, sequence (P34995 whole entry): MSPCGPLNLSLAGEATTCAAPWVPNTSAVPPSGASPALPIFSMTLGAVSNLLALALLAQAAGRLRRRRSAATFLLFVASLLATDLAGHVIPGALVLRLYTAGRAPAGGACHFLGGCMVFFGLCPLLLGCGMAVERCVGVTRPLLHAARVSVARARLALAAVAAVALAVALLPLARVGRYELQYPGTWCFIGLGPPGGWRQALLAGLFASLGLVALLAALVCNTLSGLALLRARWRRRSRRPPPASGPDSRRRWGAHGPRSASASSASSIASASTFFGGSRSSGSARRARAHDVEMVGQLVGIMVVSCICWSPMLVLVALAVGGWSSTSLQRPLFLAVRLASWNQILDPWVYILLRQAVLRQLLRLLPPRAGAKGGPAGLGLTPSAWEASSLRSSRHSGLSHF
Procedure: as §1, §2, §3

hEP3A = hEP3A (Homo sapiens (Human), UniProt P43115); experiment: FLIPR calcium signal, hEP3A; type: cell-based; settings: HEK-293(EBNA) cells expressing hEP3A/Gqi5
hEP3A, sequence (P43115 whole entry): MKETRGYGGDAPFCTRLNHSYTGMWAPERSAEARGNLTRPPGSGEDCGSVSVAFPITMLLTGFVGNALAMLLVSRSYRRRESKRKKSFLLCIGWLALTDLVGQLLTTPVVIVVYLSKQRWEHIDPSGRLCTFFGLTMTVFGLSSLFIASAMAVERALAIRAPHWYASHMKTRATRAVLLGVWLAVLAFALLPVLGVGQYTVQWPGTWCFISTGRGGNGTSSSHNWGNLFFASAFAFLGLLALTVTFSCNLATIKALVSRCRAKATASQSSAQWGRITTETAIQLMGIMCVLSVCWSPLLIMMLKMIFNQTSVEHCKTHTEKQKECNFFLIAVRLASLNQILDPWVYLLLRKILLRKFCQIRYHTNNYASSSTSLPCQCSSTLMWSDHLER
Procedure: as §1, §2, §3

hTP = hTP (Homo sapiens (Human), UniProt P21731); experiment: FLIPR calcium signal, hTP; type: cell-based; settings: HEK-293(EBNA) cells expressing hTP
hTP, sequence (P21731 whole entry): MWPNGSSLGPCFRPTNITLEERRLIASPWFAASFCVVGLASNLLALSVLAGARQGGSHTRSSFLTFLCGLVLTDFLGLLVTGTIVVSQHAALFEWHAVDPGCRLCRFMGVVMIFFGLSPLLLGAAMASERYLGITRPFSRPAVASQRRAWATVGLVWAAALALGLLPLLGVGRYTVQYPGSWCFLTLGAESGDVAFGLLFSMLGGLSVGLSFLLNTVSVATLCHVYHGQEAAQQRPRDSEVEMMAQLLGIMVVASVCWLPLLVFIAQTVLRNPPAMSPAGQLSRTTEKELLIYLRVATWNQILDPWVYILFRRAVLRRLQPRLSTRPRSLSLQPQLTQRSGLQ
Procedure: as §1, §2, §3

hDP = hDP (Homo sapiens (Human), UniProt Q13258); experiment: FLIPR calcium signal, hDP; type: cell-based; settings: HEK-293(EBNA) cells expressing hDP/Gqs5
hDP, sequence (Q13258 whole entry): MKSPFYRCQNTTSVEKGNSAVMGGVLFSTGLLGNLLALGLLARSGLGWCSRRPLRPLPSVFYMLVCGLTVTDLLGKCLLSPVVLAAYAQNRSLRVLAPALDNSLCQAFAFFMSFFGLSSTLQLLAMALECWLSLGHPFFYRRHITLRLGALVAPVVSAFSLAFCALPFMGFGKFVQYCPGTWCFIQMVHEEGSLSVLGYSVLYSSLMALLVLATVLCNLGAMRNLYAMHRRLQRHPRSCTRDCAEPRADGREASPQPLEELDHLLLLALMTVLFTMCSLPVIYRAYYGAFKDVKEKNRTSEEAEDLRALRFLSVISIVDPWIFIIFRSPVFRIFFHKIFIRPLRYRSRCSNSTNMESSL
Procedure: as §1, §2, §3

EP2 [4] = target: T1, EP2; experiment: cAMP assay, EP2; type: cell-based; settings: HEK-EBNA cells expressing EP2

T1 sequence (P43116 whole entry): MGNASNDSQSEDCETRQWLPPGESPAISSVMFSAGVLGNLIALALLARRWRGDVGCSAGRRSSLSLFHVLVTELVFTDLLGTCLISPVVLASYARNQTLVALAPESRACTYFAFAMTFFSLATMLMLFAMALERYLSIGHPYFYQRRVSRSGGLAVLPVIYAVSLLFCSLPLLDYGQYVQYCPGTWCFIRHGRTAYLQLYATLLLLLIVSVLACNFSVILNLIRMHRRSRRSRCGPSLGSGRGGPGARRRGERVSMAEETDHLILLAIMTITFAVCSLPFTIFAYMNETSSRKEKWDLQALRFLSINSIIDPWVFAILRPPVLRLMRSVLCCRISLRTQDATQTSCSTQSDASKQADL

Row | EP2 Ki (EP2 [1]) | EC50 (EP4 [2]) | Ki (EP4 [3]) | EC50 against hFP (hFP) | EC50 against hEP1 (hEP1) | EC50 against hEP3A (hEP3A) | EC50 against hTP (hTP) | EC50 against hDP (hDP) | EC50 (EP2 [4]) | Ki (EP2 [1]) | EP4 cAMP EC50 (EP4 [2]) | SMILES
1 | > 10 µM | 326 nM | 3320 nM | not active | not active | not active | not active | not active | – | – | – | Cc1cc(O)ccc1-c1cccc(C(O)/C=C/[C@H]2CCC(=O)N2CCCc2ccc(C(=O)O)cc2)c1 (single isomer, unassigned) [Example 9]
2 | – | 194 nM | 1210 nM | – | – | – | – | – | 149 nM | 7.49 µM | – | O=C(O)c1ccc(CCCN2C(=O)CC[C@@H]2/C=C/C(O)c2cccc(Br)c2)cc1 (single isomer, unassigned) [Example 2]
3 | > 10 µM | 3 nM | 25 nM | not active | not active | not active | not active | not active | – | – | – | Cc1cc(O)ccc1-c1cccc(C(O)/C=C/[C@H]2CCC(=O)N2CCCc2ccc(C(=O)O)cc2)c1 (single isomer, unassigned) [Example 10]
4 | > 10 µM | 107 nM | 757 nM | – | – | – | – | – | – | – | – | CC(C)(C)c1cc(Cl)ccc1-c1cccc(C(O)/C=C/[C@H]2CCC(=O)N2CCCc2ccc(C(=O)O)cc2)c1 (stereo partly drawn) [Example 27, 4-(3-{2(R)-[(1E)-3-(2′-tert-butyl-4′-chlorobiphenyl-3-yl)-3-hydroxyprop-1-en-1-yl]-5-oxopyrrolidin-1-yl}propyl)benzoic acid]
5 | > 10 µM | 2 nM | 159 nM | – | – | – | – | – | – | – | – | Cc1ccccc1-c1cccc(C(O)/C=C/[C@H]2CCC(=O)N2CCCc2ccc(C(=O)O)cc2)c1 (single isomer, unassigned) [Example 8]
6 | > 10 µM | 59 nM and 99 nM | 352 nM | – | – | – | – | – | – | – | – | Cc1cc(Cl)ccc1-c1cc(F)cc(C(O)/C=C/[C@H]2CCC(=O)N2CCCc2ccc(C(=O)O)cc2)c1 (single isomer, unassigned) [Example 35]
7 | > 10 µM | 117 nM | 319 nM | – | – | – | – | – | – | – | – | CCCCc1cc(Cl)ccc1-c1cccc(C(O)/C=C/[C@H]2CCC(=O)N2CCCc2ccc(C(=O)O)cc2)c1 (stereo partly drawn) [Example 29, 4-(3-{2(R)-[(1E)-3-(2′-butyl-4′-chlorobiphenyl-3-yl)-3-hydroxyprop-1-en-1-yl]-5-oxopyrrolidin-1-yl}propyl)benzoic acid]
8 | > 10 µM | – | 2040 nM | – | – | – | – | – | – | – | > 10 µM | O=C(O)c1ccc(CCCN2C(=O)CC[C@@H]2/C=C/C(O)c2cccc(Br)c2)cc1 (single isomer, unassigned) [Example 1]
